Tests used:
[1] = test system: E. coli 10243 (sensitive, untransformed); experiment: Adenylate kinase release (cell lysis) assay with antibiotic and phage 10359, sensitive strain; format: cell-based, Escherichia coli
Description: For example, in one embodiment, a sample of bacterial cells is divided into first and second samples. The first sample of bacterial cells is mixed with a solution containing ADP and a detergent in the presence of magnesium ions. This extracts the adenylate kinase from all the cells present in the sample, thus allowing the ATP generating reaction to occur. The reaction is allowed to proceed for the required time e.g. 5 minutes, after which bioluminescence reagent is added and the resulting light measured in a luminometer. An assay performed in this way determines the total amount of adenylate kinase in a sample, be it extracellular or intracellular.
The second sample is subjected to a similar assay but in the absence of detergent so that only extracellular adenylate kinase is measured. […]

[2] = test system: E. coli 10243 carrying plasmid encoding ampicillin resistance (pUC18); experiment: Adenylate kinase release (cell lysis) assay with antibiotic and phage 10359, ampicillin-resistant strain; format: cell-based, Escherichia coli; conditions: log phase, 10^5 phage 10359 at T0, 50 μg/ml ampicillin at T5
Description: A plasmid encoding ampicillin resistance (pUC18) was introduced into a pure culture of E. coli 10243 in order to induce resistance without altering phage host specificity.
Log phase cultures of both resistant and sensitive strains of E. coli 10243 were infected with 10^5 phage 10359 at T0 and 50 μg/ml ampicillin at T5.

## CC1(C)S[C@@H]2[C@H](NC(=O)[C@H](N)c3ccccc3)C(=O)N2[C@H]1C(=O)O [ampicillin]
[1]; sensitive strain, log phase, 10^5 phage 10359 at T0, 50 μg/ml ampicillin at T5, time in min
  Cell lysis due to ampicillin (adenylate kinase release): evident at T10 and significant at T20
[2]
  Effect of the antibiotic on the resistant strain (adenylate kinase release): unaffected by the antibiotic

## O=C(N[C@H](CO)[C@H](O)c1ccc([N+](=O)[O-])cc1)C(Cl)Cl [chloramphenicol]
[1]; phage 10359 plus chloramphenicol 34 μg/ml versus phage only, 80 min
  Degree of phage mediated lysis in cultures containing the antibiotic: considerably less
[1]; phage 10359 plus chloramphenicol 34 μg/ml, 80 min
  Cell lysis with both bacteriophage and chloramphenicol compared with chloramphenicol alone: Greater cell lysis
